# Active and inactive are the calls of the source. The rule behind the calls is not given here. Non-standard residues stand in square brackets, D forms with d. Residues, ends and D or L forms follow the SMILES beside them. Bip = N[C@@H](Cc1ccc(-c2ccccc2)cc1)C(=O)O; pY = N[C@@H](Cc1ccc(OP(=O)(O)O)cc1)C(=O)O
# What was measured:
# [1] = tested on: Klebsiella pneumoniae; experiment: Inhibition of rifampicin resistance in Klebsiella pneumoniae ATCC 700603 at 1:1 compound: rifampicin molar ratio measured after 20 generation; assay type: functional, organism-based
# [2] = tested on: Cell membrane; experiment: Induction of cytoplasmic membrane rupture in Pseudomonas aeruginosa ATCC 27853 assessed as blistering at 2 times MIC incubated for 30 to 120 mins by SEM analysis; assay type: subcellular; conditions: time 30-120 min
# [3] = tested on: Klebsiella pneumoniae; experiment: Antibiofilm activity against Klebsiella pneumoniae ATCC 700603 assessed as eradication of preformed biofilms at 2 to 4 times MIC incubated for 24 hrs by crystal violet staining based assay; assay type: functional, organism-based
# [4] = tested on: Cell membrane; experiment: Induction of cell membrane disruption in Staphylococcus aureus ATCC 25923 at 2 times MIC incubated for 2 hrs by SEM analysis; assay type: subcellular
# [5] = tested on: Acinetobacter baumannii; experiment: Antibacterial activity against Acinetobacter baumannii ATCC 19606 incubated for 18 to 24 hrs by broth microdilution method; assay type: functional; conditions: time 18-24 hrs
# [6] = tested on: Cell membrane; experiment: Induction of inner membrane permeabilization in Escherichia coli ML-35 assessed as increase in […] intensity by ONPG dye based microplate reader assay; assay type: subcellular
# [7] = tested on: Cell membrane; experiment: Induction of cytoplasmic membrane rupture in Staphylococcus aureus ATCC 25923 assessed as shrinkage at 2 times MIC incubated for 30 to 120 mins by SEM analysis; assay type: subcellular; conditions: time 30-120 min
# [8] = tested on: Klebsiella pneumoniae; experiment: Synergistic antibacterial activity against Klebsiella pneumoniae ATCC 700603 assessed as fractional inhibitory concentration index at 1/4 to 4 times MIC incubated for 18 to 24 hrs in presence of polymyxin B by checkerboard assay; assay type: functional; conditions: time 18-24 hrs
# [9] = tested on: Cell membrane; experiment: Induction of cytoplasmic membrane rupture in Staphylococcus aureus ATCC 25923 assessed as content leakage at 2 times MIC incubated for 30 to 120 mins by SEM analysis; assay type: subcellular; conditions: time 30-120 min
# [10] = tested on: Pseudomonas aeruginosa; experiment: Antibacterial activity against Pseudomonas aeruginosa 119 incubated for 18 to 24 hrs by broth microdilution method; assay type: functional; conditions: time 18-24 hrs
# [11] = tested on: Pseudomonas aeruginosa; experiment: Inhibition of biofilm formation in Pseudomonas aeruginosa ATCC 27853 incubated for 24 hrs by crystal violet staining based assay; assay type: functional, organism-based
# [12] = tested on: Klebsiella pneumoniae; experiment: Antibacterial activity against rifampicin resistant Klebsiella pneumoniae; assay type: functional
# [13] = molecular target: Chymotrypsin (Homo sapiens, UniProt Q99895+P17538+P40313+Q6GPI1); experiment: Stability of compound assessed as chymotrypsin (unknown origin) mediated compound degradation; assay type: ADME, protein assay
# [14] = Toxicity in ip dosed BALB/c mouse measured after 14 days; assay type: organism-based; conditions: in vivo, time 14 day
# [15] = tested on: Klebsiella pneumoniae; experiment: Additive antibacterial activity against Klebsiella pneumoniae ATCC 700603 assessed as fractional inhibitory concentration index at 1/4 to 4 times MIC incubated for 18 to 24 hrs in presence of kanamycin by checkerboard assay; assay type: functional; conditions: time 18-24 hrs
# [16] = tested on: Klebsiella pneumoniae; experiment: Antibiofilm activity against Klebsiella pneumoniae ATCC 700603 assessed as eradication of preformed biofilms incubated for 24 hrs by crystal violet staining based assay; assay type: functional, organism-based
# [17] = tested on: Klebsiella pneumoniae; experiment: Inhibition of biofilm formation in Klebsiella pneumoniae ATCC 700603 incubated for 24 hrs by crystal violet staining based assay; assay type: functional, organism-based
# [18] = tested on: Cell membrane; experiment: Induction of cytoplasmic membrane rupture in Pseudomonas aeruginosa ATCC 27853 assessed as wrinkling at 2 times MIC incubated for 30 to 120 mins by SEM analysis; assay type: subcellular; conditions: time 30-120 min
# [19] = tested on: Pseudomonas aeruginosa; experiment: Antibiofilm activity against Pseudomonas aeruginosa ATCC 27853 assessed as eradication of preformed biofilms at 4 times MIC incubated for 24 hrs by crystal violet staining based assay; assay type: functional, organism-based
# [20] = tested on: Cell membrane; experiment: Induction of outer membrane permeabilization in Escherichia coli ATCC 25922 assessed as increase in fluorescence intensity incubated for 1 min by NPN dye based microplate reader assay; assay type: subcellular
# [21] = tested on: Klebsiella pneumoniae; experiment: Antibacterial activity against Klebsiella pneumoniae ATCC 700603 incubated for 18 to 24 hrs by broth microdilution method; assay type: functional; conditions: time 18-24 hrs
# [22] = tested on: Staphylococcus aureus; experiment: Antibiofilm activity against Staphylococcus aureus ATCC 25923 assessed as eradication of preformed biofilms at 2 to 4 times MIC incubated for 24 hrs by crystal violet staining based assay; assay type: functional, organism-based
# [23] = tested on: Cell membrane; experiment: Induction of cell membrane disruption in Pseudomonas aeruginosa ATCC 27853 at 2 times MIC incubated for 2 hrs by SEM analysis; assay type: subcellular
# [24] = tested on: Escherichia coli; experiment: Inhibition of biofilm formation in Escherichia coli ATCC 25922 incubated for 24 hrs by crystal violet staining based assay; assay type: functional, organism-based
# [25] = tested on: Escherichia coli; experiment: Antibacterial activity against Escherichia coli 850 incubated for 18 to 24 hrs by broth microdilution method; assay type: functional; conditions: time 18-24 hrs
# [26] = tested on: Klebsiella pneumoniae; experiment: Antibacterial activity against kanamycin resistant Klebsiella pneumoniae; assay type: functional
# [27] = tested on: Cell membrane; experiment: Induction of cytoplasmic membrane rupture in Pseudomonas aeruginosa ATCC 27853 assessed as adhesion at 2 times MIC incubated for 30 to 120 mins by SEM analysis; assay type: subcellular; conditions: time 30-120 min
# [28] = Stability in Kunming mouse serum assessed as half life measured upto 24 hrs by RP-HPLC method; assay type: ADME, cell-free
# [29] = tested on: Cell membrane; experiment: Induction of cytoplasmic membrane rupture in Pseudomonas aeruginosa ATCC 27853 assessed as leakage of cellular content at 2 times MIC incubated for 30 to 120 mins by SEM analysis; assay type: subcellular; conditions: time 30-120 min
# [30] = tested on: Staphylococcus aureus; experiment: Inhibition of biofilm formation in Staphylococcus aureus ATCC 25923 at 1 time MIC incubated for 24 hrs by crystal violet staining based assay; assay type: functional, organism-based
# [31] = tested on: Staphylococcus aureus; experiment: Antibacterial activity against methicillin resistant Staphylococcus aureus 48 incubated for 18 to 24 hrs by broth microdilution method; assay type: functional; conditions: time 18-24 hrs
# [32] = tested on: Escherichia coli; experiment: Antibiofilm activity against Escherichia coli ATCC 25922 assessed as eradication of preformed biofilms incubated for 24 hrs by crystal violet staining based assay; assay type: functional, organism-based
# [33] = tested on: Klebsiella pneumoniae; experiment: Inhibition of kanamycin resistance in Klebsiella pneumoniae ATCC 700603 at 1:1 compound: kanamycin molar ratio measured after 20 generation; assay type: functional, organism-based
# [34] = tested on: Cell membrane; experiment: Induction of inner membrane permeabilization in Escherichia coli ML-35 assessed as increase in […] intensity measured every 5 mins for 135 mins by ONPG dye based microplate reader assay; assay type: subcellular
# [35] = tested on: Pseudomonas aeruginosa; experiment: Antibacterial activity against Pseudomonas aeruginosa ATCC 27853 incubated for 18 to 24 hrs by broth microdilution method; assay type: functional; conditions: time 18-24 hrs
# [36] = tested on: Staphylococcus aureus; experiment: Antibacterial activity against methicillin resistant Staphylococcus aureus ATCC 33591 incubated for 18 to 24 hrs by broth microdilution method; assay type: functional; conditions: time 18-24 hrs
# [37] = Cytotoxicity against HEK293T cells incubated for 1 hr by fluorescence based microplate reader assay; assay type: toxicity, cell-based, HEK-293T; conditions: human
# [38] = tested on: Klebsiella pneumoniae; experiment: Additive antibacterial activity against Klebsiella pneumoniae ATCC 700603 assessed as fractional inhibitory concentration index at 1/4 to 4 times MIC incubated for 18 to 24 hrs in presence of rifampicin by checkerboard assay; assay type: functional; conditions: time 18-24 hrs
# [39] = tested on: Cell membrane; experiment: Induction of cytoplasmic membrane rupture in Staphylococcus aureus ATCC 25923 assessed as adhesion at 2 times MIC incubated for 30 to 120 mins by SEM analysis; assay type: subcellular; conditions: time 30-120 min
# [40] = tested on: Cell membrane; experiment: Induction of membrane damage in Pseudomonas aeruginosa ATCC 27853 assessed as change in membrane shape at 2 times MIC incubated for 30 to 120 mins by SEM analysis; assay type: subcellular; conditions: time 30-120 min
# [41] = tested on: Escherichia coli; experiment: Antibiofilm activity against Escherichia coli ATCC 25922 assessed as eradication of preformed biofilms at 2 to 4 times MIC incubated for 24 hrs by crystal violet staining based assay; assay type: functional, organism-based
# [42] = tested on: Klebsiella pneumoniae; experiment: Additive antibacterial activity against Klebsiella pneumoniae ATCC 700603 assessed as fractional inhibitory concentration index at 1/4 to 4 times MIC incubated for 18 to 24 hrs in presence of ciprofloxacin by checkerboard assay; assay type: functional; conditions: time 18-24 hrs
structure (smiles),measurement,setting,value
CC(C)C[C@H](NC(=O)[C@H](CC(C)C)NC(=O)[C@H](Cc1ccc(O)cc1)NC(=O)[C@H](CCCCN)NC(=O)[C@H](CC(C)C)NC(=O)[C@H](CCCNC(=N)N)NC(=O)[C@H](CCCCN)NC(=O)[C@H](Cc1ccc(-c2ccccc2)cc1)NC(=O)[C@H](CC(C)C)NC(=O)CN)C(N)=O (H-GL[Bip]KRLKYLL-NH2),inhibition,[1],Active
same,Activity,[2],Active
same,Activity,[3],Active
same,Activity,[4],Active; More Potent Than Polymyxin B And Vancomycin
same,MIC,[5],8 µM
same,Activity,[6],Time-dependent-effect; More Potent Than 1% Triton X-100 And Polymyxin B
same,Activity,[7],Active
same,fractional inhibitory concentration index (FICI),[8],0.5
same,Activity,[9],Active
same,MIC,[10],8 µM
same,inhibition,[11],Dose-dependent-effect; Inhibition Comparable To Polymyxin B
same,MIC,[12],8 µM
same,Stability,[13],Stable
same,LD50 at 336 h,[14],66.7 mg/kg
same,fractional inhibitory concentration index (FICI),[15],0.563
same,Activity,[16],Dose-dependent-effect; Superior Activity Compared To Polymyxin B And Vancomycin
same,inhibition,[17],Dose-dependent-effect; Inhibition Comparable To Polymyxin B
same,Activity,[18],Active
same,Activity,[19],Active
same,Activity,[20],Dose-dependent-effect
same,MIC,[21],8 µM
same,Activity,[22],Active
same,Activity,[23],Active; More Potent Than Polymyxin B And Vancomycin
same,inhibition,[24],Dose-dependent-effect; Inhibition Comparable To Polymyxin B
same,MIC,[25],8 µM
same,MIC,[26],8 µM
same,Activity,[27],Active
same,half-life,[28],81.7 min
same,Activity,[29],Active
same,inhibition,[30],Active
same,MIC,[31],8 µM
same,Activity,[32],Dose-dependent-effect; Superior Activity Compared To Polymyxin B And Vancomycin
same,inhibition,[33],Active
same,Activity,[34],Dose-dependent-effect; More Potent Than 1% Triton X-100 And Polymyxin B
same,MIC,[35],8 µM
same,MIC,[36],8 µM
same,CC50 at 1 h,[37],50.9 µM
same,fractional inhibitory concentration index (FICI),[38],0.563
same,Activity,[39],Active
same,Activity,[40],Active
same,Activity,[41],Active
same,fractional inhibitory concentration index (FICI),[42],0.75
CC(C)C[C@H](NC(=O)[C@H](CC(C)C)NC(=O)[C@H](Cc1ccc(OP(=O)(O)O)cc1)NC(=O)[C@H](CCCCN)NC(=O)[C@H](CC(C)C)NC(=O)[C@H](CCCNC(=N)N)NC(=O)[C@H](CCCCN)NC(=O)[C@H](Cc1ccc(-c2ccccc2)cc1)NC(=O)[C@H](CC(C)C)NC(=O)CN)C(N)=O (H-GL[Bip]KRLK[pY]LL-NH2),inhibition,[1],Active
same,Activity,[2],Active
same,Activity,[3],Active
same,Activity,[4],Active; More Potent Than Polymyxin B And Vancomycin
same,MIC,[5],4 µM
same,Activity,[6],Time-dependent-effect; More Potent Than 1% Triton X-100 And Polymyxin B
same,Activity,[7],Active
same,fractional inhibitory concentration index (FICI),[8],0.5
same,Activity,[9],Active
same,MIC,[10],15 µM
same,inhibition,[11],Dose-dependent-effect; Inhibition Comparable To Polymyxin B
same,MIC,[12],8 µM
same,Stability,[13],Stable
same,LD50 at 336 h,[14],283 mg/kg
same,fractional inhibitory concentration index (FICI),[15],0.563
same,Activity,[16],Dose-dependent-effect; Superior Activity Compared To Polymyxin B And Vancomycin
same,inhibition,[17],Dose-dependent-effect; Inhibition Comparable To Polymyxin B
same,Activity,[18],Active
same,Activity,[19],Active
same,Activity,[20],Dose-dependent-effect
same,MIC,[21],8 µM
same,Activity,[22],Active
same,Activity,[23],Active; More Potent Than Polymyxin B And Vancomycin
same,inhibition,[24],Dose-dependent-effect; Inhibition Comparable To Polymyxin B
same,MIC,[25],8 µM
same,MIC,[26],8 µM
same,Activity,[27],Active
same,half-life,[28],511 min
same,Activity,[29],Active
same,inhibition,[30],Active
same,MIC,[31],8 µM
same,Activity,[32],Dose-dependent-effect; Superior Activity Compared To Polymyxin B And Vancomycin
same,inhibition,[33],Active
same,Activity,[34],Dose-dependent-effect; More Potent Than 1% Triton X-100 And Polymyxin B
same,MIC,[35],16 µM
same,MIC,[36],8 µM
same,CC50 at 1 h,[37],168 µM
same,fractional inhibitory concentration index (FICI),[38],0.563
same,Activity,[39],Active
same,Activity,[40],Active
same,Activity,[41],Active
same,fractional inhibitory concentration index (FICI),[42],0.563
